This is an account of results in patent publication US20230025880A1, “FUSED TRICYCLIC COMPOUND AND MEDICINAL USE THEREOF” (JAPAN TOBACCO INC., priority 2020, published 2023).

The structures appear in SMILES notation.

For this test, the target named is T1, human PDHK2 (hPDHK2) (Homo sapiens, UniProt Q15119).
T1 construct: made in house; host or cells: Escherichia coli BL21(DE3), pET-17b vector
Kind of test: Inhibitory action of PDHK2 activity (residual PDH activity, NADH absorbance at 340 nm). Type of test: biochemical. The conditions noted are these: PDH/hPDHK2 complex, PDHK reaction 45 min at room temperature. Here is the method:
In the case of human PDHK2 (hPDHK2, NCBI Reference Database Accession number NM_002611.4), modified hPDHK2 cDNA wherein FLAG-Tag sequence was added to the N terminus of hPDHK2 cDNA clone (pReceiver-M01/PDK2-GeneCopoeia) as the base was prepared by polymerase chain reaction (PCR) and ligated to the NdeI/EcoRI site of pET-17b vector (Merck KGaA, Catalog Number 69663-3). The recombinant construct was transformed into Escherichia coli DH5α. The recombinant clones were identified, and plasmid DNA was isolated and subjected to the DNA sequence analysis. One clone which had the expected nucleic acid sequence was selected for expression work.
For expression of hPDHK2 activity, Escherichia coli strain BL21(DE3) cells (Merck KGaA, Catalog Number 69450-4) were transformed with the pET17b vector containing modified hPDHK2 cDNA. The Escherichia coli were grown to an optical density 0.6 ([…]) at 30° C. Protein expression was induced by the addition of 500 μmol/L isopropyl-β-thiogalactopyranoside. The Escherichia coli were cultured at 20° C. for 17-18 hr and harvested by centrifugation. The harvested Escherichia coli was resuspended in a suspension buffer (20 mmol/L HEPES-NaOH, 500 mmol/L sodium chloride, 1% ethylene glycol, 0.1% Pluronic (registered trademark) F-68 (pH 8.0), cOmplete, EDTA-free (Roche) (pH 8.0)), and disrupted by a microfluidizer M-110H (MIZUHO INDUSTRIAL CO., LTD.). The precipitate was removed by centrifugation and the supernatant was added to DDDDK-tagged Protein PURIFICATION GEL (MEDICAL & BIOLOGICAL LABORATORIES CO., LTD., Code No. 3329). DDDDK-tagged Protein PURIFICATION GEL was washed with a washing buffer (20 mmol/L HEPES-NaOH, 500 mmol/L sodium chloride, 1% ethylene glycol, 0.1% Pluronic F-68 (pH 8.0)) and the bound protein was eluted with elution buffer 1 (20 mmol/L HEPES-NaOH, 100 μg/mL peptide (amino acid sequence DYKDDDDK) (SEQ ID NO: 1), 500 mmol/L sodium chloride, 1% ethylene glycol, 0.1% Pluronic F-68 (pH 8.0)). The eluted fractions containing FLAG-Tagged protein were pooled, concentrated by an ultrafiltration method, added to a gel filtration column (HiLoad 26/60 Superdex 200 (GE Healthcare Life Sciences, Code No. 17-1070-01)), and eluted with elution buffer 2 (20 mmol/L HEPES-NaOH, 150 mmol/L sodium chloride, 0.5 mmol/L ethylenediaminetetraacetic acid (EDTA), 1% ethylene glycol, 0.1% Pluronic F-68 (pH 8.0)). The eluted fractions were pooled and preserved at −80° C.
PDH (porcine heart PDH complex, Sigma P7032) and 0.5 μg/mL hPDHK2 were mixed in an assay buffer (50 mmol/L 3-morpholinopropanesulfonic acid (pH 7.0), 20 mmol/L dipotassium hydrogen phosphate, 60 mmol/L potassium chloride, 2 mmol/L magnesium chloride, 0.4 mmol/L EDTA, 0.2% poloxamer, 2 mmol/L dithiothreitol) so that the final concentration of PDH was 0.025 U/mL, and the mixture was incubated at 4° C. overnight to obtain a PDH/hPDHK2 complex solution.
PDH was mixed with the assay buffer so that the final concentration was 0.025 U/mL, and the mixture was incubated at 4° C. overnight to prepare a PDH solution.
The test compounds were diluted with DMSO. To measure an inhibitory action of the test compound on the PDHK activity in the PDH/hPDHK2 complex solution, PDH/hPDHK2 complex solution (20 μL), test compound (1.5 μL) and 1.06 μmol/L ATP (diluted with assay buffer) (8.5 μL) were added to a 384 well microplate (Greiner Bio-One 781801) and PDHK reaction was performed at room temperature for 45 min (test compound well). DMSO (1.5 μL) was added to control wells instead of test compound. In addition, DMSO (1.5 μL) was added to blank wells instead of the test compound, and PDH solution was added instead of the PDH/hPDHK2 complex solution. To measure an inhibitory action of the test compound on the PDHK activity inherent in the PDH solution, a test compound was added and the PDH solution instead of the PDH/hPDHK2 complex solution was added to a blank+test compound well. […]
Consider `C[C@H]1Cn2c(nnc2C(C)(C)C(F)(F)F)-c2cnc([C@@](C)(O)C(F)(F)F)n21` [Example 39], for which it took 8.1 nM to reach half-maximal inhibition (IC50).
`C[C@H]1Cn2c(nnc2C2(C(F)(F)F)CC2)-c2cnc([C@@](C)(O)C(F)(F)F)n21` [Example 40]: the IC50 worked out at 11 nM. The IC50 values of the last two compounds are within 1.5-fold of each other.
As to `C[C@H]1Cn2nc(C(=O)O)cc2-c2cnc([C@@](C)(O)C(F)(F)F)n21` [Example 41], the IC50 worked out at 21 nM. Against the preceding compound, the IC50 is about 1.9-fold higher.
As for `C[C@H]1Cn2nc(C#N)cc2-c2cnc([C@@](C)(O)C(F)(F)F)n21` [Example 42], the figure is 24 nM.
As for `C[C@H]1Cn2ncc(F)c2-c2cnc([C@@](C)(O)C(F)(F)F)n21` [Example 44], the figure is 17 nM.
Compound `C[C@H]1Cn2nc(OCC(F)F)cc2-c2cnc([C@@](C)(O)C(F)(F)F)n21` [Example 46] registered an IC50 of 13 nM.
`C[C@H]1Cn2nc(Oc3ccc(C#N)cn3)cc2-c2cnc([C@@](C)(O)C(F)(F)F)n21` [Example 47] displayed an IC50 of 20 nM.
`C[C@H]1Cn2nc(OCF)cc2-c2cnc([C@@](C)(O)C(F)(F)F)n21` [Example 48] returned an IC50 of 14 nM.
With `C[C@H]1Cn2nc(OCc3ccc(C#N)cc3)cc2-c2cnc([C@@](C)(O)C(F)(F)F)n21` [Example 49] the figure was 8.8 nM; with `C[C@H]1Cn2nc(OCC3(C#N)CC3)cc2-c2cnc([C@@](C)(O)C(F)(F)F)n21` [Example 51], 17 nM; with `C[C@H]1Cn2nc(OCC(C)(C)O)cc2-c2cnc([C@@](C)(O)C(F)(F)F)n21` [Example 52, (R)-1,1,1-trifluoro-2-((S)-9-(2-hydroxy-2-methylpropoxy)-5-methyl-5,6-dihydroimidazo[1,5-a]pyrazolo[5,1-c]pyrazin-3-yl)propan-2-ol], 21 nM.
On to `C[C@H]1Cn2nc(OCC(=O)N3CC(F)(F)C3)cc2-c2cnc([C@@](C)(O)C(F)(F)F)n21` [Example 53], for which the IC50 worked out at 13 nM.
As for `C[C@H]1Cn2c(-c3ccc(C(F)(F)F)cc3)nnc2-c2cnc([C@@](C)(O)C(F)(F)F)n21` [Example 54], the figure is 9.3 nM; as for `C[C@H]1Cn2nc(OC(C)(C)C)cc2-c2cnc([C@@](C)(O)C(F)(F)F)n21` [Example 55], 16 nM.
As for `C[C@H]1Cn2c(-c3ccc(F)cc3C(F)(F)F)nnc2-c2cnc([C@@](C)(O)C(F)(F)F)n21` [Example 56], the figure is 7 nM; as for `C[C@H]1Cn2nc(OCC3(CC#N)CC3)cc2-c2cnc([C@@](C)(O)C(F)(F)F)n21` [Example 57], 22 nM; as for `C[C@H]1Cn2nc(OC3CN(C(=O)c4ccc(F)cc4)C3)cc2-c2cnc([C@@](C)(O)C(F)(F)F)n21` [Example 58], 8.8 nM.
With `CCC(F)(F)c1nnc2n1C[C@H](C)n1c-2cnc1[C@@](C)(O)C(F)(F)F` [Example 59] the figure was 10 nM.
As to `CC(C)C(F)(F)c1nnc2n1C[C@H](C)n1c-2cnc1[C@@](C)(O)C(F)(F)F` [Example 60], half-maximal inhibition (IC50) required 6.8 nM.
In the case of `C[C@H]1Cn2nc(OCCOC(F)(F)F)cc2-c2cnc([C@@](C)(O)C(F)(F)F)n21` [Example 61], the IC50 turned out to be 14 nM.
With `C[C@H]1Cn2c(nnc2C(F)(F)Oc2ccc(F)cc2)-c2cnc([C@@](C)(O)C(F)(F)F)n21` [Example 62] the figure was 6.3 nM; with `C[C@H]1Cn2nc(OCCN3CCCC3=O)cc2-c2cnc([C@@](C)(O)C(F)(F)F)n21` [Example 63], 14 nM.
As for `CC(=O)N1CC(COc2cc3n(n2)C[C@H](C)n2c-3cnc2[C@@](C)(O)C(F)(F)F)C1` [Example 64], the figure is 19 nM; as for `C[C@H]1Cn2nc(OCC3CN(S(C)(=O)=O)C3)cc2-c2cnc([C@@](C)(O)C(F)(F)F)n21` [Example 65], 13 nM; as for `C[C@H]1Cn2nc(OCC3CN(C(=O)c4ccc(F)cc4)C3)cc2-c2cnc([C@@](C)(O)C(F)(F)F)n21` [Example 66], 18 nM.
`CC(=O)N1CCC(COc2cc3n(n2)C[C@H](C)n2c-3cnc2[C@@](C)(O)C(F)(F)F)CC1` [Example 67]: 19 nM corresponded to half-maximal inhibition (IC50).
With `C[C@H]1Cn2nc(OCC3CCN(S(C)(=O)=O)CC3)cc2-c2cnc([C@@](C)(O)C(F)(F)F)n21` [Example 68] the figure was 14 nM; with `C[C@H]1Cn2nc(OCC3CCN(C(=O)c4ccc(F)cc4)CC3)cc2-c2cnc([C@@](C)(O)C(F)(F)F)n21` [Example 69], 15 nM; with `C[C@H]1Cn2nc(Oc3cc(C(F)(F)F)ncn3)cc2-c2cnc([C@@](C)(O)C(F)(F)F)n21` [Example 70], 19 nM.
As for `CC(=O)N1CCC(Oc2cc3n(n2)C[C@H](C)n2c-3cnc2[C@@](C)(O)C(F)(F)F)CC1` [Example 71], the figure is 26 nM; as for `C[C@H]1Cn2nc(Oc3cc(C4CC4)ncn3)cc2-c2cnc([C@@](C)(O)C(F)(F)F)n21` [Example 72], 12 nM; as for `C[C@H]1Cn2c(nnc2C(F)(F)c2ccccc2Cl)-c2cnc([C@@](C)(O)C(F)(F)F)n21` [Example 73], 7.4 nM.
As for `C[C@H]1Cn2nc(OCC(F)(F)F)cc2-c2cnc([C@@](C)(O)C(F)(F)F)n21` [Example 74], the figure is 12 nM.
`CC(=O)N1CCC(c2cc3n(n2)C[C@H](C)n2c-3cnc2[C@@](C)(O)C(F)(F)F)CC1` [Example 75] had an IC50 of 19 nM.
As for `C[C@H]1Cn2nc(OCCN3CCCS3(=O)=O)cc2-c2cnc([C@@](C)(O)C(F)(F)F)n21` [Example 76], the figure is 13 nM; as for `C[C@H]1Cn2nc(OC3CCOCC3)cc2-c2cnc([C@@](C)(O)C(F)(F)F)n21` [Example 77], 17 nM.
As for `C[C@H]1Cn2nc(OCC3COC3)cc2-c2cnc([C@@](C)(O)C(F)(F)F)n21` [Example 78], the figure is 17 nM; as for `C[C@H]1Cn2nc(OCC(C)(C)C#N)cc2-c2cnc([C@@](C)(O)C(F)(F)F)n21` [Example 79], 15 nM; as for `C[C@H]1Cn2nc(OC(C)(C)C(C)(C)O)cc2-c2cnc([C@@](C)(O)C(F)(F)F)n21` [Example 80], 13 nM.
In turn, `C[C@H]1Cn2c(nnc2C2(c3ccc(F)cc3)CC2)-c2cnc([C@@](C)(O)C(F)(F)F)n21` [Example 81] displayed an IC50 of 7.3 nM.
With `C[C@H]1Cn2nc(OCC3CCS(=O)(=O)CC3)cc2-c2cnc([C@@](C)(O)C(F)(F)F)n21` [Example 82] the figure was 23 nM.
As for `C[C@H]1Cn2nc(OCC3CC4CCC(C3)S4(=O)=O)cc2-c2cnc([C@@](C)(O)C(F)(F)F)n21` (stereo partly shown) [Example 83], the figure is 16 nM; as for `C[C@H]1Cn2nc(OCC(C)(C)S(C)(=O)=O)cc2-c2cnc([C@@](C)(O)C(F)(F)F)n21` [Example 84], 42 nM; as for `C[C@H]1Cn2nc(OCC(O)(C(F)(F)F)C(F)(F)F)cc2-c2cnc([C@@](C)(O)C(F)(F)F)n21` [Example 85], 23 nM.
With `C[C@H]1Cn2nc(Oc3ccnc(C(F)(F)F)c3)cc2-c2cnc([C@@](C)(O)C(F)(F)F)n21` [Example 86] the figure was 16 nM; with `C[C@H]1Cn2c(nnc2C(F)(F)c2ccc(C(F)(F)F)cn2)-c2cnc([C@@](C)(O)C(F)(F)F)n21` [Example 87], 8.7 nM.

The IC50 is the concentration needed to halve the response being measured. A higher IC50 goes with a need for much substance.
